Patent US4800197A, “Anti-acne composition” (Richardson-Vicks Inc., priority 1987, dated 1989)

Key:
[1] = test system: corneocytes; details: C. Huber et al, Arch. Derm. Res. 257, 293-297, 1977; cited from earlier work
[2] = in vitro human skin

Row | SMILES | reduction in intercellular cohesion of the corneocytes (in words) [1] | deposition of salicylic acid in the stratum corneum (in words) [2] | rate of penetration of salicylic acid (in words) [2]
1 | O=C(O)c1ccccc1O [Salicylic acid] | causes a reduction in intercellular cohesion of the corneocytes |  | 
2 | CCCCCCCCCCCCOS(=O)(=O)[O-].[Na+] [surfactant D, sodium lauryl sulfate] |  | marked decrease in deposition of salicylic acid in the stratum corneum | marked increase in the penetration rate through the skin
